Laboratory results as given in patent US20060094020A1, “Methods and compositions for determining resistance or susceptibility of HIV-1 to stavudine” (priority 2004, published 2006).

Test system: HIV-1 (patient-derived viruses comprising the K65R mutation in RT)
Assay: Resistance test vector (PHENOSENSE) phenotypic drug susceptibility assay, luciferase readout, single round of replication in 293 cells
Assay type: cell-based
Settings: 1.7 fold is the threshold for d4T resistance
Procedure: In preferred embodiments, the phenotypic analysis of d4T resistance or susceptibility is performed using PHENOSENSE™ (ViroLogic Inc., South San Francisco, Calif.). See Petropoulos et al., 2000, Antimicrob. Agents Chemother. 44:920-928; U.S. Pat. Nos. 5,837,464 and 6,242,187. PHENOSENSE™ is a phenotypic assay that achieves the benefits of phenotypic testing and overcomes the drawbacks of previous assays. Because the assay has been automated, PHENOSENSE™ provides high throughput methods under controlled conditions for determining replication capacity of a large number of individual viral isolates.
The assay can be performed by first co-transfecting host cells with RTV DNA and a plasmid that expresses the envelope proteins of another retrovirus, for example, amphotropic murine leukemia virus (MLV). Following transfection, viral particles can be harvested from the cell culture and used to infect fresh target cells in the presence of varying amounts of anti-viral drug(s). The completion of a single round of viral replication in the fresh target cells can be detected by the means for detecting replication contained in the vector. […] The susceptibility of an HIV, or population of HIV, can be determined by measuring the concentration of antiviral drug at which the luciferase activity detected is half-maximal. […]

SMILES: Cc1cn([C@H]2C=C[C@@H](CO)O2)c(=O)[nH]c1=O [d4T, stavudine]
- IC50 fold higher than wild-type (most of the viruses comprising only the K65R mutation in RT (202 viruses)): less than 1.7 fold
- IC50 fold higher than wild-type (some of the viruses comprising only the K65R mutation in RT (202 viruses)): greater than 1.7 fold
